This note sets out measurements from patent US10406146B2, “Heterocyclic compound” (TAKEDA PHARMACEUTICAL COMPANY LIMITED, priority 2015, dated 2019).

Holding throughout (type): biochemical
One test addresses T1, HDAC1 enzyme (Homo sapiens, UniProt Q13547).
T1 construct: transducing full length HDAC1 and HDAC6 genes into Sf-9 insect cells; GST; purchased SignalChem; host or cells: Sf-9 insect cells
The experiment in a line: HDAC1 enzyme inhibitory assay (HDAC-Glo I/II Assay kit). The following applies: wells without enzyme = 100% inhibition, read-out: HDAC1 inhibitory rate (%) (1 μM). The procedure: (§1) HDAC1/6 Enzyme Inhibitory Assay
(§2) HDAC1 enzyme and HDAC6 enzyme each prepared by transducing full length HDAC1 and HDAC6 genes into Sf-9 insect cells and purifying by GST affinity column were purchased from SignalChem. Using these enzymes, HDAC1 and/or HDAC6 enzyme inhibitory activities of the compound of the present invention were evaluated. Enzymes were used after preserved at −70° C. HDAC1 or HDAC6 enzyme inhibitory activity of the compound of the present invention was measured using HDAC-Glo™ I/II Assay kit (Promega) according to the following experimental method. The test compound diluted with assay buffer (24 mM Tris-HCl (pH 7.5), 1 mM MgCl2, 0.35 mM KCl, 135 mM NaCl, 0.6 mM Glutathione, 0.01% Tween-20) was added to a 384-well plate by each 2 μL. Then, HDAC1 or HDAC6 enzyme solution diluted with assay buffer was added thereto by each 4 μL, and the plate was incubated at room temperature for 60 min. After incubated, HDAC substrate-Developer solution prepared according to Promega protocol attached to the assay kit was added to the 384-well plate by each 2 μL, and the enzyme reaction was started. After reacting at room temperature for 20 min, luminescence level was measured using plate reader Envision (PerkinElmer). The inhibitory activity of each compound was calculated as a relative activity value when luminescence level in wells without enzyme is considered as 100% inhibition.

For the next test, the target named is T2, HDAC6 enzyme (Homo sapiens, UniProt Q9UBN7).
T2 construct: transducing full length HDAC1 and HDAC6 genes into Sf-9 insect cells; GST; purchased SignalChem; host or cells: Sf-9 insect cells
T2 sequence (Q9UBN7 1-1215): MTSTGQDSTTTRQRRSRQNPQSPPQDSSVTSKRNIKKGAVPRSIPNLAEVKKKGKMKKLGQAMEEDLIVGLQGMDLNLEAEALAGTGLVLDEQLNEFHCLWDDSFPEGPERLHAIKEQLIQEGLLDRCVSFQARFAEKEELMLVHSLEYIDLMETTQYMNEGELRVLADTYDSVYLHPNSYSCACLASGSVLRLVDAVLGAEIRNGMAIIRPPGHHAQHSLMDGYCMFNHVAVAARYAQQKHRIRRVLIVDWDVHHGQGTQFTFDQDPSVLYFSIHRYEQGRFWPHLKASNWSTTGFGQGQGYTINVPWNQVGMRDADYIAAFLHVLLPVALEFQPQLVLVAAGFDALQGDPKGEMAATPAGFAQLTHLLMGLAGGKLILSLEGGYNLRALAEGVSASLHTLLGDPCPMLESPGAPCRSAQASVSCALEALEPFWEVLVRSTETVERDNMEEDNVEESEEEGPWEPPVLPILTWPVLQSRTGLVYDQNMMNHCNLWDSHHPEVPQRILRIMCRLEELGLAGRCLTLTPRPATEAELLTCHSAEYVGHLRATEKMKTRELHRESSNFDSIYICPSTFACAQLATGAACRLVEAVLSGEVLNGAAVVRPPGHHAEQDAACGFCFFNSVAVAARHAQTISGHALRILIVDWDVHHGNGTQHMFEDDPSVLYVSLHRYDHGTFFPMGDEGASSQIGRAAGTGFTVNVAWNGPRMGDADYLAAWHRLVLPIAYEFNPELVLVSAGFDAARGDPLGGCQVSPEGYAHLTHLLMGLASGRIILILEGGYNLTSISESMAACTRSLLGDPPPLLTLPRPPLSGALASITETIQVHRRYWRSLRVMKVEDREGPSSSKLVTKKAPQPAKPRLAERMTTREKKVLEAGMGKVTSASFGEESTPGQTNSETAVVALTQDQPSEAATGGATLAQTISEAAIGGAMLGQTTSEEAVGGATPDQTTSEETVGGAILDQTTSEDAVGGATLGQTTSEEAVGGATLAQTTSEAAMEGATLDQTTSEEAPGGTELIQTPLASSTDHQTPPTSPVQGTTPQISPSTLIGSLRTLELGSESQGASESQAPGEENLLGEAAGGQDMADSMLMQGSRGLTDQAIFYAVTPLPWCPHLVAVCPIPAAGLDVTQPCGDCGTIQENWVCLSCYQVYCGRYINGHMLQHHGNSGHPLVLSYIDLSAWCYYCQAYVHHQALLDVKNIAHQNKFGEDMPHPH
The experiment in a line: HDAC6 enzyme inhibitory assay (HDAC-Glo I/II Assay kit). The following applies: wells without enzyme = 100% inhibition, read-out: HDAC6 inhibitory rate (%) (1 μM). The procedure: as §1, §2

Another test concerns the target T3, HDAC9 enzyme (Homo sapiens, UniProt Q9UKV0).
T3 construct: transducing full length HDAC9 gene into Sf-9 insect cells; made in house; host or cells: Sf-9 insect cells
In words: HDAC9 enzyme inhibitory assay (HDAC-Glo class IIa). To be noted: wells without enzyme = 100% inhibition, read-out: HDAC9 inhibitory rate (%) (1 μM). How it is done: HDAC9 Enzyme Inhibitory Assay
Enzyme was prepared by transducing full length HDAC9 gene into Sf-9 insect cells and purifying by Ni-NTA affinity column, and HDAC9 enzyme inhibitory activity was evaluated. Enzymes were used after preserved at −70° C. HDAC9 enzyme inhibitory activity of the test compound was measured using HDAC-Glo class IIa (Promega) according to the following experimental method. The test compound diluted with assay buffer (24 mM Tris-HCl (pH 7.5), 1 mM MgCl2, 0.35 mM KCl, 135 mM NaCl, 0.6 mM Glutathione, 0.01% Tween-20) was added to a 384-well plate by each 2 μL. Then, HDAC9 enzyme solution diluted with assay buffer was added thereto by each 2 μL, and the plate was incubated at room temperature for 60 min. After incubated, HDAC substrate-Developer solution prepared according to Promega protocol was added to the 384-well plate by each 4 μL, and the enzyme reaction was started. After reacting at room temperature for 20 min, luminescence level was measured using plate reader Envision (PerkinElmer). The inhibitory activity of each compound was calculated as a relative activity value when luminescence level in wells without enzyme is considered as 100% inhibition.

T3 sequence (Q9UKV0 whole entry, species assumed): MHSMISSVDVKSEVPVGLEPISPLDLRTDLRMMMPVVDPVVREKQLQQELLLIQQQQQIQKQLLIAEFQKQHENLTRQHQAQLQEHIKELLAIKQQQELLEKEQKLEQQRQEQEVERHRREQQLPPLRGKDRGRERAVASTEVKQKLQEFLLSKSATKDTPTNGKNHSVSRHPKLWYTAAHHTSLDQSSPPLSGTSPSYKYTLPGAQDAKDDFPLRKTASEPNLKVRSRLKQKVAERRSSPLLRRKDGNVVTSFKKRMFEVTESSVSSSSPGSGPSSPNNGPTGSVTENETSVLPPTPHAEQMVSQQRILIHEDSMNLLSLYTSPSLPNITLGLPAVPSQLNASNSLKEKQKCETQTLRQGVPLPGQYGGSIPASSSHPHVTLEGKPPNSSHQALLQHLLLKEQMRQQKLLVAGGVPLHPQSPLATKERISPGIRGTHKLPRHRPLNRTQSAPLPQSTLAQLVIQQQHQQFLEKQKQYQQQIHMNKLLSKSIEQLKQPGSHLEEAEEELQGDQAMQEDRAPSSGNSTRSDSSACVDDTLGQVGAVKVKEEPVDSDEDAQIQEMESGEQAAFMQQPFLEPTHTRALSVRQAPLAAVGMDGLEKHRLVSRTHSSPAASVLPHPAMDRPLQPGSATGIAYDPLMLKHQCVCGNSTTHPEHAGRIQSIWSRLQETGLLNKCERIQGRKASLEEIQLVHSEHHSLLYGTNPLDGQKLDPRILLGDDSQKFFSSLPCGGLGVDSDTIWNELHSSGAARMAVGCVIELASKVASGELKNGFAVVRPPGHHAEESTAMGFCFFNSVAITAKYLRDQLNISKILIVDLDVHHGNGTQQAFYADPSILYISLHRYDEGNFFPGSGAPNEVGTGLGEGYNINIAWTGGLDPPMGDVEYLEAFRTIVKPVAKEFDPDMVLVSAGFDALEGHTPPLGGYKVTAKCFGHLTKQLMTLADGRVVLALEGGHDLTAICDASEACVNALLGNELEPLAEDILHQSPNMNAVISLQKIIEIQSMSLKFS
T1 sequence (Q13547 whole entry): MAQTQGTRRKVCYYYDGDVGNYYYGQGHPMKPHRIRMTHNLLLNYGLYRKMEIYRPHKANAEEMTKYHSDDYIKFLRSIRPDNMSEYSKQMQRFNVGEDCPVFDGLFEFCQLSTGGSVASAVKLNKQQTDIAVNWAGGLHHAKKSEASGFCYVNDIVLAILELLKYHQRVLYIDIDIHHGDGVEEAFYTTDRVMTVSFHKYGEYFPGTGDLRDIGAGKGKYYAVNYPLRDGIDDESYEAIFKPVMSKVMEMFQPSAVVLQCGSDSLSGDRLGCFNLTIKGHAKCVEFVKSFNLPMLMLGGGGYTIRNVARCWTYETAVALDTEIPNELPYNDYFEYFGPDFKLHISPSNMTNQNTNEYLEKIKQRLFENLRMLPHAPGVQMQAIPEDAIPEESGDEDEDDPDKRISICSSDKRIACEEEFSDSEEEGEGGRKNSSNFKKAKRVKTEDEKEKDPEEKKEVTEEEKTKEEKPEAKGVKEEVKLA

On to `O=C(NCC1CCCCN1C(=O)Nc1ccc(-c2noc(C(F)(F)F)n2)cc1)c1cccc(Cl)c1Cl` (stereo not drawn) [Example 30, 2-(((2,3-dichlorobenzoyl)amino)methyl)-N-(4-(5-(trifluoromethyl)-1,2,4-oxadiazol-3-yl)phenyl)piperidine-1-carboxamide], for which the inhibition at 1 µM worked out at 4% on HDAC1 enzyme, 1% on HDAC6 enzyme and 70% at HDAC9 enzyme.
On to `Cn1ccnc1C(=O)NCC1CCCCN1C(=O)Nc1ccc(-c2noc(C(F)(F)F)n2)cc1` (stereo not drawn) [Example 39, 2-((((1-methyl-1H-imidazol-2-yl)carbonyl)amino)methyl)-N-(4-(5-(trifluoromethyl)-1,2,4-oxadiazol-3-yl)phenyl)piperidine-1-carboxamide], for which the inhibition at 1 µM at HDAC1 enzyme is 47%; at HDAC6 enzyme, 5%; on HDAC9 enzyme, 90%.
As to `O=C(NCC1CCCCN1C(=O)Nc1ccc(-c2noc(C(F)(F)F)n2)cc1)c1cccc(-c2ccccc2)c1` (stereo not drawn) [Example 14, 2-(((biphenyl-3-ylcarbonyl)amino)methyl)-N-(4-(5-(trifluoromethyl)-1,2,4-oxadiazol-3-yl)phenyl)piperidine-1-carboxamide], the inhibition at 1 µM at HDAC1 enzyme was -8%; on HDAC6 enzyme, 5%; at HDAC9 enzyme, 51%.
On the same counts, the results for `O=C(NCC1CCCCN1C(=O)Nc1ccc(-c2noc(C(F)(F)F)n2)cc1)c1cccc(F)c1` (stereo not drawn) [Example 5, 2-(((3-fluorobenzoyl)amino)methyl)-N-(4-(5-(trifluoromethyl)-1,2,4-oxadiazol-3-yl)phenyl)piperidine-1-carboxamide] are 35%, 4% and 95%.
As for `O=C(NCC1CCCCN1C(=O)Nc1ccc(-c2noc(C(F)(F)F)n2)cc1)c1ccccc1C(F)(F)F` (stereo not drawn) [Example 16, 2-(((2-(trifluoromethyl)benzoyl)amino)methyl)-N-(4-(5-(trifluoromethyl)-1,2,4-oxadiazol-3-yl)phenyl)piperidine-1-carboxamide], the inhibition at 1 µM at HDAC1 enzyme is -2%; at HDAC6 enzyme, 1%; on HDAC9 enzyme it was 57%.
Regarding `O=C(NCC1CCCCN1C(=O)Nc1ccc(-c2noc(C(F)(F)F)n2)cc1)c1ccc(C(F)(F)F)cc1` (stereo not drawn) [Example 18, 2-(((4-(trifluoromethyl)benzoyl)amino)methyl)-N-(4-(5-(trifluoromethyl)-1,2,4-oxadiazol-3-yl)phenyl)piperidine-1-carboxamide], the inhibition at 1 µM at HDAC1 enzyme was -7%; at HDAC6 enzyme it was 2%; on HDAC9 enzyme, 39%.
As for `Cn1nccc1C(=O)NC[C@H]1COCCN1C(=O)Nc1ccc(-c2noc(C(F)(F)F)n2)cc1` [Example 62, (3S)-3-((((1-methyl-1H-pyrazol-5-yl)carbonyl)amino)methyl)-N-(4-(5-(trifluoromethyl)-1,2,4-oxadiazol-3-yl)phenyl)morpholine-4-carboxamide], the inhibition at 1 µM came out at 53% at HDAC1 enzyme, 6% at HDAC6 enzyme and 92% on HDAC9 enzyme.
Take `CC(=O)NCC1CCCCN1C(=O)Nc1ccc(-c2noc(C(F)(F)F)n2)cc1` (stereo not drawn) [Example 48, 2-(acetamidomethyl)-N-(4-(5-(trifluoromethyl)-1,2,4-oxadiazol-3-yl)phenyl)piperidine-1-carboxamide]: the figures for the inhibition at 1 µM on HDAC1 enzyme, on HDAC6 enzyme and on HDAC9 enzyme were 41%, 5% and 88%, respectively.
Take `O=C(NCC1CCCCN1C(=O)Nc1ccc(-c2noc(C(F)(F)F)n2)cc1)c1csc(C(F)(F)F)n1` (stereo not drawn) [Example 60, N-(4-(5-(trifluoromethyl)-1,2,4-oxadiazol-3-yl)phenyl)-2-((((2-(trifluoromethyl)-1,3-thiazol-4-yl)carbonyl)amino)methyl)piperidine-1-carboxamide]: the inhibition at 1 µM is 20% on HDAC1 enzyme, 1% on HDAC6 enzyme and 72% at HDAC9 enzyme.
On the same counts, the results for `O=C(NCC1CCCCN1C(=O)Nc1ccc(-c2noc(C(F)(F)F)n2)cc1)c1cc(Cl)cc(Cl)c1` (stereo not drawn) [Example 33, 2-(((3,5-dichlorobenzoyl)amino)methyl)-N-(4-(5-(trifluoromethyl)-1,2,4-oxadiazol-3-yl)phenyl)piperidine-1-carboxamide] are -5%, 0% and 48%.
Consider `Cc1ccnc(C(=O)NCC2CCCCN2C(=O)Nc2ccc(-c3noc(C(F)(F)F)n3)cc2)c1` (stereo not drawn) [Example 56, 4-methyl-N-((1-((4-(5-(trifluoromethyl)-1,2,4-oxadiazol-3-yl)phenyl)carbamoyl)piperidin-2-yl)methyl)pyridine-2-carboxamide], for which the inhibition at 1 µM on HDAC1 enzyme was found to be 25%; at HDAC6 enzyme it was 4%; at HDAC9 enzyme, 83%.
In the same order, the values of `O=C(NCC1CCCCN1C(=O)Nc1ccc(-c2noc(C(F)(F)F)n2)cc1)c1cccnc1` (stereo not drawn) [Example 35, N-((1-((4-(5-(trifluoromethyl)-1,2,4-oxadiazol-3-yl)phenyl)carbamoyl)piperidin-2-yl)methyl)nicotinamide] are 58%, 4% and 96%.
As to `O=C(NCC1CCCCN1C(=O)Nc1ccc(-c2noc(C(F)(F)F)n2)cc1)c1ccccc1-c1ccccc1` (stereo not drawn) [Example 13, 2-(((biphenyl-2-ylcarbonyl)amino)methyl)-N-(4-(5-(trifluoromethyl)-1,2,4-oxadiazol-3-yl)phenyl)piperidine-1-carboxamide], the inhibition at 1 µM at HDAC1 enzyme turned out to be 19%; on HDAC6 enzyme, 9%; on HDAC9 enzyme it was 82%.
Consider `O=C(NCC1CCCCN1C(=O)Nc1ccc(-c2noc(C(F)(F)F)n2)cc1)c1ccc(F)cc1` (stereo not drawn) [Example 6, 2-(((4-fluorobenzoyl)amino)methyl)-N-(4-(5-(trifluoromethyl)-1,2,4-oxadiazol-3-yl)phenyl)piperidine-1-carboxamide], for which the inhibition at 1 µM at HDAC1 enzyme turned out to be 34%; on HDAC6 enzyme, 5%; on HDAC9 enzyme, 94%.
